Like-named read-outs stand apart in the source and are kept apart here.
How the values were obtained:
decay of paddy seeds = assay: Decay-inhibiting effect in tank farming without soil (Example 3); conditions: for Soaking: Inhibition of decay, Concentration of Molybdenum in Solution: paddy seeds left soaked two weeks in the solution at 30° C., no soil, water did not rot, no rotten smell; for Ten-minute soaking: Inhibition of decay, Concentration of Molybdenum in Solution: seeds soaked ten minutes in the solution, then two weeks in water at 30° C.; for Inhibition of decay, Amount of molybdenum or tungsten added to seed: seeds covered with substance, soaked two weeks in water at 30° C.
Experimental: (§1) The decay-inhibiting effect of molybdenum-containing substances in tank farming without soil was examined.
(§2) The possibility of growth and the inhibition of decay were determined in the same manner as above.

paddy rice [1] = assay: Seedling establishment of paddy seeds soaked in solutions of readily-soluble molybdenum substances (Example 2-2, FIGS. 8 and 13); format: in vivo
Experimental: The examination of the proportion of seedling establishment was carried out under the same conditions as the examination whose results are shown in FIG. 8, except for the molybdenum concentration and the duration of soaking.

[2] = in water, powder, cited from earlier work
paddy seeds = assay: Possibility of growth of paddy seeds in tank farming without soil (Example 3)
Experimental: as §1, §2

sulfide ion generation = assay: Inhibition of sulfide ion generation, paddy seeds covered with slightly-soluble substances (Example 2-3, FIG. 9); conditions: approximately 0.1 mmol/g (per dry seeds) in terms of molybdenum or tungsten
Text: The water on slightly germinated seeds was lightly wiped off, and immediately after that, the seeds were put with (lightly covered with) various amounts of the slightly-soluble substances shown in Table 1. […] The number of days for which sulfide ion generation was inhibited and the proportion of seedling establishment were examined.

sulfide ions = assay: Inhibiting effect of molybdenum added to soil on sulfide ions (Example 1-3, FIG. 4); conditions: supernatant after shaking soil, 30° C., two weeks after seeding
Experimental: An inhibiting effect of a molybdenum-containing substance on sulfide ions was examined in relation to the degrees of generation of ferric sulfide in soil and the concentrations of molybdenum in soil solutions, and the results are shown in FIG. 4. The results shown in FIG. 4 were obtained from samples obtained in the same manner as in Example 1-2. Since methylene blue decolorizes in a reduced state, methylene blue weighing 0.1% of dry soil was added to each sample of soil so that a reduced state of the soil could be detected. The supernatant liquids obtained after shaking the samples of soil thus adjusted had molybdenum concentrations shown in FIG. 4.

paddy rice [3] = assay: Seedling establishment of coated paddy seeds in submerged soil containers (Examples 4-1 to 4-4b, FIGS. 11, 14-19c); format: in vivo; conditions: dry seeds, 25 wt % calcium peroxide alone at 0.1 or less time the weight of dry seed, 30° C., FIG. 19c
Experimental: The germinated paddy seeds were soaked for one minute in a tenfold diluted solution of a commercially available laundry starch (manufactured by Rocket Soap Co., Ltd.; My Laundry Starch) containing approximately a little less than 10% by weight of polyvinyl alcohol, centrifuged at 1000 rpm for removal of the extra solution, and, immediately after that, lightly covered with different amounts of ammonium molybdophosphate, whereby seeds with different amounts of ammonium molybdophosphate were prepared.
(§3) It should also be noted that in each of FIGS. 14 through 15b, the horizontal axis represents the number of moles (mmol) of molybdenum or tungsten that adhered per gram of dry seed. In each of FIGS. 14 through 15b, the dots correspond to the numbers of moles of 0, 0.02, 0.05, 0.1, 0.2, 0.5, 1, and 2 mmol, starting from the left.
as §3, with “should” for “should also”, “16” for “14”, “18,” for “15b,”, “molybdenum” for “molybdenum or tungsten”
It should be noted that in FIG. 19a, the horizontal axis represents the number of moles (mmol) of molybdenum that adhered per gram of dry seed. In FIG. 19a, the dots correspond to the numbers of moles of 0, 0.02, 0.05, 0.1, 0.2, 0.5, 1, and 2 mmol, starting from the left.
The resulting seeds were allowed to spend time in a sufficiently wet condition so that the iron rusted, and then allowed to further spend overnight. […] Six containers were allotted for each condition, and the proportion of seedling establishment and the standard error were examined. It should be noted that in FIG. 19b, the horizontal axis represents the number of moles (mmol) of molybdenum that adhered per gram of dry seed. In FIG. 19b, the dots correspond to the numbers of moles of 0, 0.02, 0.05, 0.1, 0.2, 0.5, 1, and 2 mmol, starting from the left.
Six containers were allotted for each condition, and the proportion of seedling establishment and the standard error were examined. It should be noted that in FIG. 19c, the horizontal axis represents the actual weight ratios of 25 wt % calcium peroxide that adhered with respect to the weight of dry seed. In FIG. 19c, the dots correspond to the actual weight ratios of 25 wt % calcium peroxide of 0, 0.01, 0.02, 0.05, 0.1, 0.2, 0.5, and 1 time, starting from the left.

[4] = 3 M molybdenum solution, one-minute soaking, FIG. 13
[5] = seeds covered with substance, soaked two weeks in water at 30° C.
[6] = paddy seeds left soaked two weeks in the solution at 30° C., no soil, concentration at which sheath leaf elongation was observed
[7] = seeds soaked ten minutes in the solution, then two weeks in water at 30° C.

Compound: 12-moblybdo(VI)phosphoric acid n-hydrate [Molybdophosphoric acid]
- Soaking: Inhibition of decay, Concentration of Molybdenum in Solution (decay of paddy seeds): <0.02 M
- Ten-minute soaking: Inhibition of decay, Concentration of Molybdenum in Solution (decay of paddy seeds): 0.1 M
- proportion of seedling establishment (paddy rice [1]; [4]): improvement in proportion of seedling establishment

Compound: [H+].[H+].[NH4+].[NH4+].[NH4+].[NH4+].[NH4+].[NH4+].[NH4+].[NH4+].[NH4+].[NH4+].[O]=[W](=[O])([O-])[O-].[O]=[W](=[O])([O-])[O-].[O]=[W](=[O])([O-])[O-].[O]=[W](=[O])([O-])[O-].[O]=[W](=[O])([O-])[O-].[O]=[W](=[O])([O-])[O-].[O]=[W](=[O])=[O].[O]=[W](=[O])=[O].[O]=[W](=[O])=[O].[O]=[W](=[O])=[O].[O]=[W](=[O])=[O].[O]=[W](=[O])=[O] [Ammonium paratungstate, Ammonium tungstate parapentahydrate]
- Inhibition of decay, Amount of molybdenum or tungsten added to seed (decay of paddy seeds): <0.3 mmol/g
- Water solubility [2]: Slightly soluble (has a percentage of solubility of 10% by weight or lower with respect to water)
- Possibility of growth, Amount of molybdenum or tungsten added to seed (paddy seeds; [5]): 0.3 mmol/g

Compound: [Ca+2].[O]=[Mo](=[O])([O-])[O-] [Calcium molybdate]
- Inhibition of decay, Amount of molybdenum or tungsten added to seed (decay of paddy seeds): 0.3 mmol/g
- Possibility of growth, Amount of molybdenum or tungsten added to seed (paddy seeds; [5]): 1 mmol/g

Compound: [Mg+2].[O]=[Mo](=[O])([O-])[O-] [Magnesium molybdate]
- Water solubility [2]: Slightly soluble (has a percentage of solubility of 10% by weight or lower with respect to water)
- Water solubility ([2]; listed as magnesium molybdate): slightly soluble

Compound: [O]=[Mo](=[O])([OH])[OH] [Molybdic acid]
- Inhibition of decay, Amount of molybdenum or tungsten added to seed (decay of paddy seeds): <0.02 mmol/g
- number of days for which sulfide ion generation was inhibited (sulfide ion generation): fourteen
- Water solubility [2]: Slightly soluble (has a percentage of solubility of 10% by weight or lower with respect to water)
- Water solubility ([2]; listed as molybdic acid): slightly soluble
- Possibility of growth, Amount of molybdenum or tungsten added to seed (paddy seeds; in vivo): > 2 mmol/g

Compound: [K+].[K+].[O]=[Mo](=[O])([O-])[O-] [Potassium molybdate]
- Soaking: Inhibition of decay, Concentration of Molybdenum in Solution (decay of paddy seeds): 0.3 M
- Ten-minute soaking: Inhibition of decay, Concentration of Molybdenum in Solution (decay of paddy seeds): 0.5 M
- Water solubility [2]: Readily soluble
- Water solubility ([2]; listed as potassium molybdate): readily soluble
- Soaking: Possibility of growth, Concentration of Molybdenum in Solution (paddy seeds; [6]): 0.02 M
- Ten-minute soaking: Possibility of growth, Concentration of Molybdenum in Solution (paddy seeds; [7]): 1< M
- molybdenum concentration at which sulfide ions were effectively inhibited (sulfide ions): ≥ 0.2 mM
- molybdenum concentration up to which black circles were observed in the soil (sulfide ions): ≤ 0.06 mM

Compound: O.O.[Na+].[Na+].[O]=[Mo](=[O])([O-])[O-] [Sodium molybdate, Sodium molybdate dihydrate]
- Soaking: Inhibition of decay, Concentration of Molybdenum in Solution (decay of paddy seeds): 0.1 M
- Ten-minute soaking: Inhibition of decay, Concentration of Molybdenum in Solution (decay of paddy seeds): 0.3 M
- Water solubility ([2]; dihydrate): Readily soluble
- Water solubility ([2]; listed as sodium molybdate, dihydrate): readily soluble
- Soaking: Possibility of growth, Concentration of Molybdenum in Solution (paddy seeds; [6]): 0.03 M
- Ten-minute soaking: Possibility of growth, Concentration of Molybdenum in Solution (paddy seeds; [7]): 1< M

Compound: [O]=[W](=[O])=[O] [Tungsten oxide, Tungsten oxide (VI)]
- Inhibition of decay, Amount of molybdenum or tungsten added to seed (decay of paddy seeds): 1< mmol g^−1
- number of days for which sulfide ion generation was inhibited (sulfide ion generation): fourteen
- Water solubility [2]: Slightly soluble (has a percentage of solubility of 10% by weight or lower with respect to water)
- Possibility of growth, Amount of molybdenum or tungsten added to seed (paddy seeds; in vivo): > 1 mmol/g

Compound: [O]=[W](=[O])([OH])[OH] [Tungstic acid]
- Inhibition of decay, Amount of molybdenum or tungsten added to seed (decay of paddy seeds): 1< mmol g^−1
- Water solubility [2]: Slightly soluble (has a percentage of solubility of 10% by weight or lower with respect to water)
- Possibility of growth, Amount of molybdenum or tungsten added to seed (paddy seeds; in vivo): > 1 mmol/g

Compound: [Ca+2].[O-][O-] [calcium peroxide, reference compound]
- proportion of seedling establishment (paddy rice [3]): ≤ 20%

Compound: Ammonium molybdate tetrahydrate
- Soaking: Inhibition of decay, Concentration of Molybdenum in Solution (decay of paddy seeds): <0.02 M
- Ten-minute soaking: Inhibition of decay, Concentration of Molybdenum in Solution (decay of paddy seeds): 0.1 M

Compound: Ammonium phosphotungstate trihydrate [Ammonium tungstophosphate]
- Inhibition of decay, Amount of molybdenum or tungsten added to seed (decay of paddy seeds): 1< mmol g^−1
- Possibility of growth, Amount of molybdenum or tungsten added to seed (paddy seeds; in vivo): > 1 mmol/g

Compound: Potassium phosphomolybdate [Potassium molybdophosphate]
- Water solubility [2]: Slightly soluble (has a percentage of solubility of 10% by weight or lower with respect to water)
- Water solubility ([2]; listed as potassium molybdophosphate): slightly soluble

Compound: Silicomolybdic acid n-hydrate [Molybdosilicic acid]
- Water solubility [2]: Readily soluble
- Water solubility ([2]; listed as molybdosilicic acid): readily soluble
- proportion of seedling establishment (paddy rice [1]; [4]): improvement in proportion of seedling establishment

Compound: Sodium phosphomolybdate n-hydrate [Sodium molybdophosphate]
- Soaking: Inhibition of decay, Concentration of Molybdenum in Solution (decay of paddy seeds): <0.02 M
- Ten-minute soaking: Inhibition of decay, Concentration of Molybdenum in Solution (decay of paddy seeds): 0.1 M
- Water solubility [2]: Readily soluble
- Water solubility ([2]; listed as sodium molybdophosphate): readily soluble
- Soaking: Possibility of growth, Concentration of Molybdenum in Solution (paddy seeds; in vivo): <0.02 M
- Ten-minute soaking: Possibility of growth, Concentration of Molybdenum in Solution (paddy seeds; in vivo): > 1 M
- molybdenum concentration of the soaking solution at which proportion of seedling establishment improved (paddy rice [1]; ten-minute soaking, FIG. 8): approximately 1 M
- proportion of seedling establishment (paddy rice [1]; ten-minute soaking, soaking solution 2 M molybdenum): decrease in proportion of seedling establishment

— US20120283096A1, “AGENT FOR IMPROVING PLANT GROWTH, SEEDS, AND METHOD FOR IMPROVING PLANT GROWTH” (Incorporated Administrative Agency National Agricu lture …, priority 2010, published 2012)
